# According to patent US9943506B2, “BCL6 inhibitors as anticancer agents” (Cornell University, priority 2013, dated 2018):
# Read-outs that look alike come from different tables or passages of the source.
# Key:
# [1] = tested on: Ly7 DLBCL cells; assay: Growth inhibition of DLBCL cells, Ly7; assay type: cell-based
# Experimental: (§1) 50,000 cells per well were treated for 48 hours with different concentrations of the compounds in 96 well plates, using DMSO as a control. Then, viability was determined with Cell Titer Blue™ (Promega) and growth inhibition was calculated as the percentage of viable cells with respect to cells treated with DMSO alone. GI50 values were determined by dose-response curves.
# (§2) 293T cells were grown in Dulbecco's modified Eagles medium supplemented with 10% fetal bovine serum (FBS) (Gemini Bio-Products, Woodland, Calif.) and 1% penicillin-streptomycin. DLBCL cell lines OCI-Ly1, OCI-Ly1-B50, OCI-Ly7, OCI-Ly10 and OCI-Ly19 were grown in 80% Iscove's medium, 20% FBS and penicillin G/streptomycin. DLBCL cell lines Toledo, Farage, SU-DHL4, DOHH-2, SC-1, RCK8, TMD8, HBL-1, Ly3, Karpas 422 and SU-DHL6 were cultured in 90% RPMI medium, 10% FBS, 2 mM glutamine, 10 mM Hepes and penicillin G/streptomycin. All cell lines were cultured at 37° C. in a humidified atmosphere of 5% CO2.
# [2] = tested on: Toledo DLBCL cells; assay: Growth inhibition of DLBCL cells, Toledo; assay type: cell-based; settings: Homo sapiens
# Experimental: as §1, §2
# [3] = biological target: BCL6-BTB (Homo sapiens, UniProt P41182); assay: MicroScale Thermophoresis binding to BCL6-BTB
# Experimental: BCL6 is also required for normal development of germinal center (GC) B-cells.
# Recombinant BCL6-BTB was labeled using the RED-NHS Labeling kit (NanoTemper Technologies). […] The label:protein ratio was determined using photometry at 650 nm and Bradford reagent. […] The labeled BCL6-BTB was adjusted to 400 nM with PBS (Thermo) buffer supplemented with 0.05% Tween-80 (Fisher scientific). […] After 10 min incubation, approximately 4 μL of each solution was filled into Monolith NT Standard Treated Capillaries (NanoTemper Technologies GmbH). Thermophoresis was measured using a Monolith NT.115 instrument (NanoTemper Technologies GmbH) at an ambient temperature of 25° C. with 5 s/30 s/5 s laser off/on/off times, respectively. Instrument parameters were adjusted with 90% LED power and 40% MST power. Data of three independent experiments were analyzed (NT.Analysis software version 1.5.41, NanoTemper Technologies) using the signal from Thermophoresis.
# [4] = tested on: SUDHL6 DLBCL cells; assay: Growth inhibition of DLBCL cells, SUDHL6; assay type: cell-based; settings: Homo sapiens, SU-DHL-6
# Experimental: as §1, §2
# [5] = tested on: Ly10 DLBCL cells; assay: Growth inhibition of DLBCL cells, Ly10; assay type: cell-based; settings: Table 2, BCL-6 dependent, 48 hours
# Experimental: as §1, §2
# [6] = tested on: Ly1B50 DLBCL cells; assay: Growth inhibition of DLBCL cells, Ly1B50; assay type: cell-based; settings: Table 2; BCL-6 independent; 48 hours
# Experimental: as §1, §2
# [7] = tested on: Ly3 DLBCL cells; assay: Growth inhibition of DLBCL cells, Ly3; assay type: cell-based
# Experimental: as §1, §2
# [8] = tested on: Karpas 422 DLBCL cells; assay: Growth inhibition of DLBCL cells, Karpas 422; assay type: cell-based; settings: Homo sapiens, read-out: GI50 Karpas 422
# Experimental: as §1, §2
# [9] = tested on: WSU-DLCL2 DLBCL cells; assay: Growth inhibition of DLBCL cells, WSU-DLCL2; assay type: cell-based; settings: Homo sapiens, WSUDLCL2; Table 8; Bcl-6 independent
# Experimental: as §1
# [10] = Table 13, BCL6 dependent, read-out: GI50 SUDHL6
# [11] = 48 h, Table 2, BCL-6 independent
# [12] = Table 2, BCL-6 dependent, 48 hours
# [13] = Table 2, BCL-6 independent, 48 hours
# [14] = Table 2, BCL-6 dependent, 48 hours, read-out: GI50 SUDH6
# [15] = Table 7, BCL6 dependent, read-out: GI50 SUDHL6
# [16] = Table 8, Bcl-6 dependent, read-out: GI50 SUDH6
Kd ([3]; Table 13),"GI50 [4, 10]","GI50 ([8]; Table 8, Bcl-6 independent)","GI50 [4, 16]",SMILES,"GI50 ([1]; Table 13, BCL6 dependent)","GI50 ([2]; Table 13, BCL6 independent)","GI50 ([1]; Table 8, Bcl-6 dependent)","GI50 ([2]; Table 8, Bcl-6 independent)",GI50 [9],"GI50 ([7]; Table 8, Bcl-6 dependent)",other results
–,–,> 40 µM,10 ± 1 µM,O=C(CN1C(=O)C(=O)c2cc(Cl)ccc21)OCc1ccccc1 [Compound 2071],–,–,26 ± 1 µM,> 40 µM,> 40 µM,> 40 µM,"GI50 ([1]; Table 7, BCL6 dependent): 53 µM; GI50 ([2]; Table 7, BCL6 independent): > 125 µM; GI50 [4, 15]: 35 µM"
–,–,> 40 µM,17 ± 1 µM,O=C(CN1C(=O)C(=O)c2cc(F)ccc21)OCc1ccccc1 [Compound 2073],–,–,36 ± 7 µM,> 40 µM,> 40 µM,> 40 µM,"GI50 ([1]; Table 7, BCL6 dependent): 30 µM; GI50 ([2]; Table 7, BCL6 independent): 40 µM; GI50 [4, 15]: 30 µM"
–,–,> 30 µM,> 30 µM,O=C(O)CCN1C(=O)/C(=C2/C(=O)N(CC(=O)OCc3ccccc3)c3ccc(F)cc32)SC1=S [Compound 2097],–,–,> 30 µM,> 30 µM,> 30 µM,> 30 µM,–
–,–,> 30 µM,> 30 µM,O=C(O)CCN1C(=O)/C(=C2/C(=O)N(CC(=O)OCc3ccccc3)c3ccc(Cl)cc32)SC1=S [Compound 2099],–,–,> 30 µM,> 30 µM,> 30 µM,> 30 µM,"GI50 ([1]; Table 5, BCL6 dependent): 65 µM; GI50 ([2]; Table 5, BCL6 independent): 75 µM; Kd ([3]; Table 5): 5.5 ± 0.7 µM; GI50 ([4]; Table 5, BCL6 dependent, read-out: GI50 SUDHL6): 30 ± 7 µM"
–,–,> 30 µM,> 30 µM,O=C(O)CCN1C(=O)/C(=C2/C(=O)N(CC(=O)OCc3ccccc3)c3ccc(Br)cc32)SC1=S [Compound 2101],–,–,> 30 µM,> 30 µM,> 30 µM,> 30 µM,–

# More lines, now with the values behind:
SMILES,Kd ([3]; Table 13),"GI50 [4, 10]","GI50 ([8]; Table 8, Bcl-6 independent)","GI50 [4, 16]","GI50 ([1]; Table 13, BCL6 dependent)","GI50 ([2]; Table 13, BCL6 independent)","GI50 ([1]; Table 8, Bcl-6 dependent)","GI50 ([2]; Table 8, Bcl-6 independent)",GI50 [9],"GI50 ([7]; Table 8, Bcl-6 dependent)",other results
Clc1ccc2[nH]c(SCc3ccccc3)nc2c1 [Compound 1057],87 ± 12 µM,> 125 µM,–,–,> 125 µM,> 125 µM,–,–,–,–,–
O=[N+]([O-])c1ccc2[nH]c(SCc3ccccc3)nc2c1 [Compound 1061],180 ± 36 µM,40 ± 10 µM,–,–,60 µM,> 125 µM,–,–,–,–,–
CCOc1ccc2[nH]c(SCc3ccccc3)nc2c1 [Compound 1063],315 ± 24 µM,> 125 µM,–,–,> 125 µM,> 125 µM,–,–,–,–,–
"O=C(O)CN1C(=O)/C(=C2/C(=O)Nc3c(Cl)cc(Cl)cc32)SC1=S [Compound 2039, (Z)-2-(5-(5,7-Dichloro-2-oxoindolin-3-ylidene)-4-oxo-2-thioxothiazolidin-3-yl)acetic acid]",–,–,–,–,–,–,–,–,–,–,"GI50 [5]: > 40 µM; GI50 ([1]; 48 h, Table 2, BCL-6 dependent): > 40 µM; GI50 [2, 11]: > 40 µM; GI50 [6]: > 40 µM; GI50 [7, 12]: > 40 µM; GI50 [8, 13]: > 40 µM; GI50 [4, 14]: > 40 µM"
"O=C(O)CN1C(=O)/C(=C2/C(=O)Nc3ccc(Br)cc32)SC1=S [Compound 2041, (Z)-2-(5-(5-Bromo-2-oxoindolin-3-ylidene)-4-oxo-2-thioxothiazolidin-3-yl)acetic acid]",–,–,–,–,–,–,–,–,–,–,"GI50 [5]: > 40 µM; GI50 ([1]; 48 h, Table 2, BCL-6 dependent): > 40 µM; GI50 [2, 11]: > 40 µM; GI50 [6]: > 40 µM; GI50 [7, 12]: > 40 µM; GI50 [8, 13]: > 40 µM; GI50 [4, 14]: > 40 µM"
